Assay results: ChEMBL document CHEMBL1821626, “Novel 2-thioxothiazolidin-4-one inhibitors of bacterial MurD ligase targeting D-Glu- and diphosphate-binding sites” (Eur J Med Chem, 2011)

Assays:
[1] = Inhibition of Escherichia coli MurD ligase after 15 mins by colorimetric malachite green assay
[2] = Inhibition of Escherichia coli MurD ligase assessed as residual activity at 250 uM after 15 mins by colorimetric malachite green assay
[3] = Inhibition of Escherichia coli MurD ligase assessed as residual activity at 500 uM after 15 mins by colorimetric malachite green assay

## O=C(O)CC[C@@H](NC(=O)c1cccc(/C=C2\SC(=S)NC2=O)c1)C(=O)O
[1]
  IC50: 89 µM

## O=C(O)CC[C@@H](NC(=O)c1ccc(/C=C2\SC(=S)NC2=O)cc1)C(=O)O
[1]
  IC50: 45 µM

## O=C(O)CC[C@@H](NC(=O)c1ccc(/C=C2\SC(=O)NC2=O)cc1)C(=O)O
[2]
  Activity: 96%

## O=C(O)CC[C@@H](NC(=O)c1cccc(/C=C2\SC(=O)NC2=O)c1)C(=O)O
[2]
  Activity: 97%

## O=C(O)CC[C@H](NC(=O)c1cccc(/C=C2\SC(=S)NC2=O)c1)C(=O)O
[1]
  IC50: 172 µM

## O=C(O)CC[C@@H](NC(=O)c1ccc(CC2SC(=S)NC2=O)cc1)C(=O)O (stereo partly specified)
[3]
  Activity: 96%

## O=C(O)CC[C@H](NC(=O)c1ccc(/C=C2\SC(=S)NC2=O)cc1)C(=O)O
[1]
  IC50: 10 µM

## O=C(O)CC[C@H](NC(=O)c1ccc(/C=C2\SC(=O)NC2=O)cc1)C(=O)O
[2]
  Activity: 93%

## COC(=O)CC[C@@H](NC(=O)c1cccc(CC2SC(=S)NC2=O)c1)C(=O)OC (stereo partly specified)
[3]
  Activity: 91%

## O=C(O)CC[C@@H](NC(=O)c1cc(/C=C2\SC(=S)NC2=O)ccc1F)C(=O)O
[3]
  Activity: 67%

## O=C(O)CC[C@@H](NC(=O)c1cccc(CC2SC(=S)NC2=O)c1)C(=O)O (stereo partly specified)
[3]
  Activity: 91%

## O=C(O)CC[C@@H](NC(=O)c1ccc(/C=C2\NC(=O)NC2=O)cc1)C(=O)O
[3]
  Activity: 97%

## N=C1NC(=O)/C(=C/c2ccc(C(=O)N[C@H](CCC(=O)O)C(=O)O)cc2)S1
[3]
  Activity: 95%

## O=C(O)CC[C@H](NC(=O)c1cccc(/C=C2\SC(=O)NC2=O)c1)C(=O)O
[2]
  Activity: 96%

## O=C(O)CC[C@@H](NC(=O)c1ccc(/C=C2\SC(=S)N(CC(=O)O)C2=O)cc1)C(=O)O
[3]
  Activity: 96%

## CN1C(=O)/C(=C/c2ccc(C(=O)N[C@H](CCC(=O)O)C(=O)O)cc2)SC1=S
[3]
  Activity: 85%
